From ChEMBL document CHEMBL1128323, “Antifungal agents. 9. 3-Aryl-4-[alpha-(1H-imidazol-1-yl)arylmethyl]pyrroles: a new class of potent anti-Candida agents” (1995)
In brackets after ≈: the same amount, converted by molar mass.

How the values were obtained:
Type in all cases: functional
Candida albicans [1] = experiment: Percent resistance against Candida albicans (40 clinical isolates) at 256 micro g/mL (pH=5.8), activity is expressed as R%.
Candida albicans [2] = experiment: Resistance against Candida. albicans (40 clinical isolates) at 256 ug/mL (pH=7.2), activity is expressed as R%.
Candida albicans [3] = experiment: Inhibitory activity against Candida albicans (40 clinical isolates), determined at pH-5.8
Candida albicans [4] = experiment: Inhibitory activity against Candida albicans (40 clinical isolates), determined at pH-7.2
Candida [5] = experiment: Inhibitory activity against Candida. species. (40 clinical isolates), determined at pH-5.8
Candida [6] = experiment: Inhibitory activity against Candida. species. (40 clinical isolates), determined at pH-7.2
Candida [7] = experiment: Inhibitory activity against Candida. species (40 clinical isolates), determined at pH-5.8
Candida [8] = experiment: 50% inhibitory activity against the Candida. species (40 clinical isolates) was determined at pH-7.2
Candida [9] = experiment: 90% inhibitory activity against Candida. species (40 clinical isolates) determined at pH-7.2
Candida [10] = experiment: Resistance against all Candida. species (40 clinical isolates) at 256 micro g/mL (pH=5.8). Activity is expressed as R%.
Candida [11] = experiment: Percent resistance against all Candida. species (40 clinical isolates) at 256 micro g/mL (pH=7.2), activity is expressed as R%.
Candida albicans [12] = experiment: Inhibitory activity against the Candida albicans (40 clinical isolates), determined at pH-5.8
Candida albicans [13] = experiment: Inhibitory activity against the Candida albicans (40 clinical isolates), determined at pH-7.2
Candida albicans [14] = experiment: 50% inhibitory activity against Candida albicans (40 clinical isolates) determined at pH-5.8
Candida albicans [15] = experiment: 50% inhibitory activity against Candida albicans (40 clinical isolates) determined at pH-7.2; details: Candida albicans; read-out: MIC50

SMILES	R (Candida albicans [1]) [%]	R (Candida albicans [2]) [%]	MIC (Candida albicans [3]) [µg/mL]	MIC (Candida albicans [4]) [µg/mL]	MIC (Candida [5]) [µg/mL]	MIC (Candida [6]) [µg/mL]	MIC50 (Candida [7]) [µg/mL]	MIC90 (Candida [7]) [µg/mL]	MIC50 (Candida [8]) [µg/mL]	MIC90 (Candida [9]) [µg/mL]	R (Candida [10]) [%]	R (Candida [11]) [%]	MIC90 (Candida albicans [12]) [µg/mL]	MIC90 (Candida albicans [13]) [µg/mL]	MIC50 (Candida albicans [14]) [µg/mL]	MIC50 (Candida albicans [15]) [µg/mL]
Fc1ccc(C(c2c[nH]cc2-c2ccccc2Cl)n2ccnc2)cc1 (stereo not drawn)	0	0	48.3 (≈ 137 µM)	36.5 (≈ 104 µM)	71.1 (≈ 202 µM)	107 (≈ 305 µM)	64 (≈ 182 µM)	64 (≈ 182 µM)	64 (≈ 182 µM)	256 (≈ 728 µM)	0	0	64 (≈ 182 µM)	64 (≈ 182 µM)	32 (≈ 91 µM)	32 (≈ 91 µM)
Clc1ccc(-c2c[nH]cc2C(c2ccc(-n3cccc3)cc2)n2ccnc2)cc1 (stereo not drawn)	16	20	> 119	> 121	> 156	> 229	64 (≈ 160 µM)	> 256	256 (≈ 642 µM)	256 (≈ 642 µM)	40	50	256 (≈ 642 µM)	256 (≈ 642 µM)	64 (≈ 160 µM)	64 (≈ 160 µM)
Clc1ccc(C(c2c[nH]cc2-c2ccccc2)n2ccnc2)c(Cl)c1 (stereo not drawn)	100	100	> 256	> 256	> 256	> 256	> 256	> 256	> 256	> 256	100	100	> 256	> 256	> 256	> 256
Clc1ccc(C(c2c[nH]cc2-c2ccc(Cl)cc2Cl)n2ccnc2)cc1 (stereo not drawn)	0	5	> 6.8	> 66.4	13.7 (≈ 34 µM)	> 212	16 (≈ 39.7 µM)	16 (≈ 39.7 µM)	64 (≈ 159 µM)	> 256	0	40	256 (≈ 636 µM)	256 (≈ 636 µM)	4 (≈ 9.93 µM)	8 (≈ 19.9 µM)
c1ccc(-c2c[nH]cc2C(c2ccc(-n3cccc3)cc2)n2ccnc2)cc1 (stereo not drawn)	0	0	30.4 (≈ 83.4 µM)	37.3 (≈ 102 µM)	40 (≈ 110 µM)	42.1 (≈ 116 µM)	32 (≈ 87.8 µM)	64 (≈ 176 µM)	32 (≈ 87.8 µM)	64 (≈ 176 µM)	0	0	32 (≈ 87.8 µM)	32 (≈ 87.8 µM)	16 (≈ 43.9 µM)	16 (≈ 43.9 µM)
O=[N+]([O-])c1ccc(C(c2c[nH]cc2-c2ccc(Cl)c(Cl)c2)n2ccnc2)cc1 (stereo not drawn)	50	50	> 283	> 312	> 256	> 256	> 256	> 256	> 256	> 256	100	100	> 256	> 256	256 (≈ 619 µM)	256 (≈ 619 µM)
Nc1ccc(C(c2c[nH]cc2-c2ccc(Cl)cc2)n2ccnc2)cc1 (stereo not drawn)	0	0	42.8 (≈ 123 µM)	98.2 (≈ 282 µM)	82.5 (≈ 237 µM)	184 (≈ 527 µM)	82.5 (≈ 237 µM)	82.5 (≈ 237 µM)	128 (≈ 367 µM)	128 (≈ 367 µM)	0	0	128 (≈ 367 µM)	128 (≈ 367 µM)	32 (≈ 91.7 µM)	64 (≈ 183 µM)
Clc1ccc(-c2c[nH]cc2C(c2ccc(Cl)cc2Cl)n2ccnc2)cc1 (stereo not drawn)	0	0	3.94 (≈ 9.78 µM)	3.6 (≈ 8.94 µM)	14.4 (≈ 35.8 µM)	61 (≈ 151 µM)	16 (≈ 39.7 µM)	32 (≈ 79.5 µM)	32 (≈ 79.5 µM)	128 (≈ 318 µM)	0	0	8 (≈ 19.9 µM)	8 (≈ 19.9 µM)	2 (≈ 4.97 µM)	2 (≈ 4.97 µM)
Clc1ccc(-c2c[nH]cc2C(c2ccc(-n3cccc3)cc2)n2ccnc2)c(Cl)c1 (stereo not drawn)	0	100	33.7 (≈ 77.8 µM)	> 256	19.5 (≈ 45 µM)	> 256	16 (≈ 36.9 µM)	32 (≈ 73.8 µM)	> 256	> 256	0	100	64 (≈ 148 µM)	> 256	16 (≈ 36.9 µM)	> 256
Clc1ccc(C(c2c[nH]cc2-c2ccccc2Cl)n2ccnc2)c(Cl)c1 (stereo not drawn)	0	0	5.19 (≈ 12.9 µM)	7.3 (≈ 18.1 µM)	13.7 (≈ 34 µM)	21.8 (≈ 54.1 µM)	16 (≈ 39.7 µM)	16 (≈ 39.7 µM)	32 (≈ 79.5 µM)	32 (≈ 79.5 µM)	0	0	16 (≈ 39.7 µM)	16 (≈ 39.7 µM)	4 (≈ 9.93 µM)	4 (≈ 9.93 µM)
Clc1ccc(-c2c[nH]cc2C(c2ccccc2)n2ccnc2)cc1Cl (stereo not drawn)	0	0	7.2 (≈ 19.6 µM)	> 10.9	19.1 (≈ 51.9 µM)	11.4 (≈ 31 µM)	16 (≈ 43.4 µM)	32 (≈ 86.9 µM)	16 (≈ 43.4 µM)	16 (≈ 43.4 µM)	0	0	16 (≈ 43.4 µM)	16 (≈ 43.4 µM)	8 (≈ 21.7 µM)	6 (≈ 16.3 µM)
Cc1ccc(C(c2c[nH]cc2-c2ccc(Cl)c(Cl)c2)n2ccnc2)cc1 (stereo not drawn)	0	0	7.9 (≈ 20.7 µM)	5.8 (≈ 15.2 µM)	14.2 (≈ 37.1 µM)	17.5 (≈ 45.8 µM)	16 (≈ 41.9 µM)	16 (≈ 41.9 µM)	16 (≈ 41.9 µM)	32 (≈ 83.7 µM)	0	0	16 (≈ 41.9 µM)	16 (≈ 41.9 µM)	4 (≈ 10.5 µM)	4 (≈ 10.5 µM)
Clc1ccc(-c2c[nH]cc2C(c2ccc(-n3cccc3)cc2)n2ccnc2)cc1Cl (stereo not drawn)	40	50	> 264	> 289	> 256	> 438	> 256	> 256	> 256	> 256	100	80	> 256	> 256	128 (≈ 295 µM)	128 (≈ 295 µM)
